Experimental data taken from patent US10689354B2, “Aminoazole derivative” (Teijin Pharma Limited, priority 2015, dated 2020).

What was measured:
[1] = target: T1, androgen receptor (AR-LBD) (Rattus norvegicus, UniProt P15207); assay: Evaluation of androgen receptor affinity (PolarScreen Androgen Receptor Competitor Assay Kit, Red; fluorescence polarization); conditions: 22° C. for 5 hours, relative to binding rate of 1 μM DHT, read-out: AR affinity (pEC50) (converted)
T1 construct: 5 μL of 2×AR-LBD/Fluoromone AL Red Complex contained in the kit; purchased Invitrogen
T1 sequence (P15207 651-882 limits assumed): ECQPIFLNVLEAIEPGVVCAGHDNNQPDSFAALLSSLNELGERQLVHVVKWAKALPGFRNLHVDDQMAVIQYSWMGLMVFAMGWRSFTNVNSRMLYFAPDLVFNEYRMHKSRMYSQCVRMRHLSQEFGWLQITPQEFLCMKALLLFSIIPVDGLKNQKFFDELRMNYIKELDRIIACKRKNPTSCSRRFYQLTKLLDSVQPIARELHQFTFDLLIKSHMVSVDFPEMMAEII
Method in brief: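 Duplicate wells; compound plus AR-LBD tracer complex incubated 22° C for 5 h, then FP measured. Effect compared with 1 μM DHT; 50%-effect concentration expressed as pEC50.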

human androgen receptor = target: T2, human androgen receptor (Homo sapiens, UniProt P10275); assay: Reporter assay of an androgen receptor responsive sequence (luciferase, transiently transfected HEK293 cells); type: cell-based; conditions: 24 hours incubation, relative to activity of 100 nM DHT, read-out: AR transcriptive activity (pEC50) (converted)
T2 construct: expressed in transfected cells; host or cells: HEK293
T2 sequence (P10275 1-920): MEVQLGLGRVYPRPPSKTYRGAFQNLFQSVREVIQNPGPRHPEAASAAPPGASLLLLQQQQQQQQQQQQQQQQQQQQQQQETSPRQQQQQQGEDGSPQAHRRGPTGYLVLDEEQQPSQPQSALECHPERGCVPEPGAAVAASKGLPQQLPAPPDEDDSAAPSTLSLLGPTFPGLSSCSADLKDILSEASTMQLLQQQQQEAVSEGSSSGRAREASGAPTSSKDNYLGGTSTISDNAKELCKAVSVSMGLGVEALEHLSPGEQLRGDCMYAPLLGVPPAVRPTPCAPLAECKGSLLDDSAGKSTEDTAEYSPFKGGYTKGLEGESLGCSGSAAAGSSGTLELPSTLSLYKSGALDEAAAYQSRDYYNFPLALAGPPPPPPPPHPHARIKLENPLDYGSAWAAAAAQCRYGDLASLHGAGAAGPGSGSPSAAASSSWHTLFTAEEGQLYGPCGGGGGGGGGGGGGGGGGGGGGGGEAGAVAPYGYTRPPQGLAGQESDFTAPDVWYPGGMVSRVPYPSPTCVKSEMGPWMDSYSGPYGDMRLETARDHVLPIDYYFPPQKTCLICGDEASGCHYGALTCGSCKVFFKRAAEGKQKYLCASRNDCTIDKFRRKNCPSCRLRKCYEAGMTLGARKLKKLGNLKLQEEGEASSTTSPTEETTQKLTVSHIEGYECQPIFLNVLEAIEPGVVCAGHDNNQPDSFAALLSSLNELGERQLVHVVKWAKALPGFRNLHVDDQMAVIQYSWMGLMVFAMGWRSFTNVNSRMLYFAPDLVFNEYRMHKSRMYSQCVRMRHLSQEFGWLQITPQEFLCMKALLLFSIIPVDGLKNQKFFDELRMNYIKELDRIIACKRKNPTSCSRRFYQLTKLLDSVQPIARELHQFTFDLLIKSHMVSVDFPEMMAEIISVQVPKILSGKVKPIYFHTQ
Method in brief: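 Agonism scored as pEC50, fitted by 4-parameter curve against the response to 100 nM DHT, from dual-luciferase readout after 24 h compound treatment. Cells were HEK293 co-transfected (3 h) with human AR expression vector, androgen-responsive firefly reporter and Renilla control, in charcoal-stripped serum.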

Row | EC50 [1] [nM] | EC50 (human androgen receptor) [nM] | Structure (SMILES)
1 | > 2000 | > 10000 | Cc1sc(N(Cc2cccc(=O)[nH]2)c2ccc(C#N)cc2)nc1C(=O)NS(C)(=O)=O [Compound 493, 2-[4-cyano-N-[(6-oxo-1H-pyridin-2-yl)methyl]anilino]-5-methyl-N-methylsulfonyl-thiazole-4-carboxamide]
2 | 31.6 | 1000 | Cc1sc(N(Cc2cnc(-c3ccc(F)cc3)s2)c2ccc(C#N)cc2)nc1C(=O)NS(C)(=O)=O [Compound 494, 2-[4-cyano-N-[[2-(4-fluorophenyl)thiazol-5-yl]methyl]anilino]-5-methyl-N-methylsulfonyl-thiazole-4-carboxamide]
3 | 39.8 | > 10000 | Cc1sc(N(Cc2cnc(-c3ccccc3F)s2)c2ccc(C#N)cc2)nc1C(=O)NS(C)(=O)=O [Compound 495, 2-[4-cyano-N-[[2-(2-fluorophenyl)thiazol-5-yl]methyl]anilino]-5-methyl-N-methylsulfonyl-thiazole-4-carboxamide]
4 | 126 | 200 | Cc1sc(N(Cc2nc3ccccc3s2)c2ccc(C#N)cc2)nc1C(=O)NS(C)(=O)=O [Compound 497, 2-[N-(1,3-benzothiazol-2-ylmethyl)-4-cyano-anilino]-5-methyl-N-methylsulfonyl-thiazole-4-carboxamide]
5 | 31.6 | 100 | Cc1sc(N(Cc2ccc(C(F)(F)F)cc2F)c2ccc(C#N)cc2)nc1C(=O)NS(C)(=O)=O [Compound 498, 2-[4-cyano-N-[[2-fluoro-4-(trifluoromethyl)phenyl]methyl]anilino]-5-methyl-N-methylsulfonyl-thiazole-4-carboxamide]
6 | 39.8 | 158 | COCCCS(=O)(=O)NC(=O)c1nc(N(Cc2ccc(F)cc2)c2ccc(C#N)cc2)sc1C [Compound 499, 2-[4-cyano-N-[(4-fluorophenyl)methyl]anilino]-N-(3-methoxypropylsulfonyl)-5-methyl-thiazole-4-carboxamide]
7 | 20 | 126 | Cc1sc(N(Cc2ccc(OC(F)(F)F)cc2)c2ccc(C#N)cc2)nc1C(=O)NS(=O)(=O)Cc1ccncc1 [Compound 500, 2-[4-cyano-N-[[4-(trifluoromethoxy)phenyl]methyl]anilino]-5-methyl-N-(4-pyridylmethylsulfonyl)thiazole-4-carboxamide]
8 | 39.8 | 63.1 | Cc1sc(N(Cc2ccc(F)cc2)c2ccc(C#N)cc2)nc1C(=O)NS(=O)(=O)Cc1ccncc1 [Compound 501, 2-[4-cyano-N-[(4-fluorophenyl)methyl]anilino]-5-methyl-N-(4-pyridylmethylsulfonyl)thiazole-4-carboxamide]
9 | 39.8 | 794 | COc1cccc(CN(CCc2ccc(Cl)cc2)c2nc(C(=O)NS(C)(=O)=O)c(C)s2)n1 [Compound 502, 2-[2-(4-chlorophenyl)ethyl-[(6-methoxy-2-pyridyl)methyl]amino]-5-methyl-N-methylsulfonyl-thiazole-4-carboxamide]
10 | 31.6 | 1260 | Cc1sc(N(CCc2ccc(Cl)cc2)Cc2ccc(C#N)cc2)nc1C(=O)NS(C)(=O)=O [Compound 503, 2-[2-(4-chlorophenyl)ethyl-[(4-cyanophenyl)methyl]amino]-5-methyl-N-methylsulfonyl-thiazole-4-carboxamide]

The remaining lines, values behind:

Row | Structure (SMILES) | EC50 [1] [nM] | EC50 (human androgen receptor) [nM]
11 | Cc1sc(N(Cc2ccc(OC(F)F)cc2)c2ccc(C(F)(F)F)nc2)nc1C(=O)NS(C)(=O)=O [Compound 472, 2-[[4-(difluoromethoxy)phenyl]methyl-[6-(trifluoromethyl)-3-pyridyl]amino]-5-methyl-N-methylsulfonyl-thiazole-4-carboxamide] | 126 | 398
12 | Cc1sc(N(CC[Si](C)(C)C)c2ccc(C#N)cc2)nc1C(=O)NS(C)(=O)=O [Compound 476, 2-[4-cyano-N-(2-trimethylsilylethyl)anilino]-5-methyl-N-methylsulfonyl-thiazole-4-carboxamide] | 200 | > 10000
13 | Cc1sc(N(Cc2ccc3c(c2)CCO3)c2ccc(C#N)cc2)nc1C(=O)NS(C)(=O)=O [Compound 478, 2-[4-cyano-N-(2,3-dihydrobenzofuran-5-ylmethyl)anilino]-5-methyl-N-methylsulfonyl-thiazole-4-carboxamide] | 63.1 | 25.1
14 | Cc1sc(N(Cc2cc3ccccc3o2)c2ccc(C#N)cc2)nc1C(=O)NS(C)(=O)=O [Compound 479, 2-[N-(benzofuran-2-ylmethyl)-4-cyano-anilino]-5-methyl-N-methylsulfonyl-thiazole-4-carboxamide] | 63.1 | 63.1
15 | Cc1sc(N(CCC2CC3CCC2C3)c2ccc(C#N)cc2)nc1C(=O)NS(C)(=O)=O (stereo not drawn) [Compound 482, 2-[4-cyano-N-(2-norbornan-2-ylethyl)anilino]-5-methyl-N-methylsulfonyl-thiazole-4-carboxamide] | 50.1 | 158
16 | Cc1sc(N(Cc2ccc3c(c2)C(O)CC3)c2ccc(C#N)cc2)nc1C(=O)NS(C)(=O)=O (stereo not drawn) [Compound 484, 2-[4-cyano-N-[(3-hydroxyindan-5-yl)methyl]anilino]-5-methyl-N-methylsulfonyl-thiazole-4-carboxamide] | 158 | 126
17 | Cc1sc(N(CCCC2CCCC2)c2ccc(C#N)cc2)nc1C(=O)NS(C)(=O)=O [Compound 485, 2-[4-cyano-N-(3-cyclopentylpropyl)anilino]-5-methyl-N-methylsulfonyl-thiazole-4-carboxamide] | 20 | 126
18 | Cc1sc(N(Cc2ccc3c(c2)C(O)CCO3)c2ccc(C#N)cc2)nc1C(=O)NS(C)(=O)=O (stereo not drawn) [Compound 486, 2-[4-cyano-N-[(4-hydroxychroman-6-yl)methyl]anilino]-5-methyl-N-methylsulfonyl-thiazole-4-carboxamide] | 251 | 251
19 | Cc1sc(N(Cc2ccccc2)c2ccc(C#N)cc2F)nc1C(=O)NS(C)(=O)=O [Compound 487, 2-(N-benzyl-4-cyano-2-fluoro-anilino)-5-methyl-N-methylsulfonyl-thiazole-4-carboxamide] | 79.4 | 158
20 | Cc1sc(N(CCc2cccnc2)Cc2ccc(Cl)cc2)nc1C(=O)NS(C)(=O)=O [Compound 488, 2-[(4-chlorophenyl)methyl-[2-(3-pyridyl)ethyl]amino]-5-methyl-N-methylsulfonyl-thiazole-4-carboxamide] | > 2000 | > 10000
21 | Cc1sc(N(CC2CCC3(CC2)CC3)c2ccc(C#N)cc2)nc1C(=O)NS(C)(=O)=O [Compound 489, 2-[4-cyano-N-(spiro[2.5]octan-6-ylmethyl)anilino]-5-methyl-N-methylsulfonyl-thiazole-4-carboxamide] | 79.4 | 1000
22 | COc1cccc(CN(c2ccc(C#N)cc2)c2nc(C(=O)NS(C)(=O)=O)c(C)s2)n1 [Compound 491, 2-[4-cyano-N-[(6-methox-2-pyridyl)methyl]anilino]-5-methyl-N-methylsulfonyl-thiazole-4-carboxamide] | 100 | 316
23 | Cc1sc(N(Cc2ncccc2O)c2ccc(C#N)cc2)nc1C(=O)NS(C)(=O)=O [Compound 492, 2-[4-cyano-N-[(3-hydroxyl-pyridyl)methyl]anilino]-5-methyl-N-methylsulfonyl-thiazole-4-carboxamide] | 794 | 1260
24 | Cc1sc(N(Cc2ccc(Br)nc2)c2ccc(C#N)cc2)nc1C(=O)NS(C)(=O)=O [Compound 496, 2-[N-[(6-bromo-3-pyridyl)methyl]-4-cyano-anilino]-5-methyl-N-methylsulfonyl-thiazole-4-carboxamide] | 126 | 158
